Molecular target: T1, HinfPDH (prephenate dehydrogenase component of chorismate mutase/prephenate dehydrogenase TyrA) (Haemophilus influenzae, UniProt P43902)
T1 construct: prephenate dehydrogenase domain, residues 81-377 (Met1-Phe80 excluded); N-terminal His tag removed by TEV, leaving Gly; selenomethionine-labelled; expressed in E. coli; dimer
Test: X-ray crystal structure, […] A
Assay type: binding
Conditions: ligand acquired during expression in E. coli, not added

T1 sequence (P43902 81-377): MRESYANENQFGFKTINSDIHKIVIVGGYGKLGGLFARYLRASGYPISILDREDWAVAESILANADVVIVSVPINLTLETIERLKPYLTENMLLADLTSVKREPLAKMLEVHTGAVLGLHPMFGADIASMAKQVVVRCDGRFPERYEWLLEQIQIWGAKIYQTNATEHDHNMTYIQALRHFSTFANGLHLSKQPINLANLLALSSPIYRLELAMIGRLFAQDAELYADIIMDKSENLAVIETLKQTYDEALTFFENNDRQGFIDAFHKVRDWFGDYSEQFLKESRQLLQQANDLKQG

## N[C@@H](Cc1ccc(O)cc1)C(=O)O [tyrosine]
Ternary complex with NAD+, active site, competitive mode only inferred
  X-ray crystal structure, 2.0 A: could be unambiguously assigned to a tyrosine molecule and an NAD^+ cofactor

## NC(=O)c1ccc[n+]([C@@H]2O[C@H](COP(=O)(O)OP(=O)(O)OC[C@H]3O[C@@H](n4cnc5c(N)ncnc54)[C@H](O)[C@@H]3O)[C@@H](O)[C@H]2O)c1 [NAD^+]
Ternary complex with tyrosine, cofactor site
  X-ray crystal structure, 2.0 A: One tyrosine and one NAD^+ are bound in each monomer

Reference: PMC2954222, “The structure of Haemophilus influenzae prephenate dehydrogenase suggests unique features of bifunctional TyrA enzymes” (Acta Crystallographica Section F: Structural Biology and …, 2010)
